From PubChem BioAssay (NCI) come the findings set out here.

Several values for one entry are separate records, joined by “and”; a condition that tells them apart may be missing. Identical values can stand only once.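 Tested at 5 concentrations; 48 h exposure; 96-well plates; endpoints linearly interpolated, else capped at highest concentration. GI50 marks 50% less growth. At the TGI there is no net growth.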

Test systems include CCRF-CEM leukemia; A549 NSCLC; MCF7 breast; DU-145 prostate; SF-295 CNS; HS 578T breast; UACC-62 melanoma; SN12C renal; NCI-H522 lung; A498 renal.
Common to all, as to experiment: DTP human tumour cell line panel, 48 h

Consider `C=C1C(=O)O[C@H]2[C@H]1CC/C(COC(=O)/C=C\C(=O)NCc1ccc(Cn3c(=O)sn(-c4ccc(OC)cc4)c3=O)cc1)=C\CC[C@@]1(C)O[C@@H]21`, for which the GI50 in the assay on CCRF-CEM leukemia was 0.174 µM; in the assay on A549 NSCLC it was 0.938 µM; in the assay with MCF7 breast, 0.292 µM; in the assay on DU-145 prostate, 0.694 µM; in the assay on SF-295 CNS, 3.84 µM; with HS 578T breast, 0.913 µM. For the same compound, the GI50 in the assay with UACC-62 melanoma is 0.7 µM; with SN12C renal, 0.636 µM; in the assay with NCI-H522 lung, 0.648 µM; in the assay with A498 renal, 0.799 µM. In addition, the TGI in the assay with CCRF-CEM leukemia was determined as 4.27 µM; in the assay with A549 NSCLC, 2.88 µM; in the assay on MCF7 breast, 1.17 µM; in the assay on DU-145 prostate it was 1.36 µM; with SF-295 CNS it was 10.1 µM; in the assay on HS 578T breast it was 2.51 µM. Also, the TGI with UACC-62 melanoma stood at 1.41 µM; in the assay on SN12C renal it was 1.46 µM; in the assay with NCI-H522 lung, 1.56 µM; with A498 renal it was 1.57 µM.

`O=C(O)c1cc(N/C=C2\C(=O)c3ccccc3OC2O)ccc1O` (centres undefined): the GI50 in the assay with CCRF-CEM leukemia was 9.75 µg/mL; in the assay on A549 NSCLC, 53.7 µg/mL; with MCF7 breast it was 24.1 µg/mL; with DU-145 prostate it was 18.9 µg/mL; in the assay with SF-295 CNS it was 18.1 µg/mL; in the assay on HS 578T breast it was 19.6 µg/mL. Besides, the GI50 in the assay on UACC-62 melanoma was 15.6 µg/mL; with SN12C renal, 25.5 µg/mL; in the assay on NCI-H522 lung, 34.3 µg/mL; with A498 renal, 35.8 µg/mL. In addition, the TGI with CCRF-CEM leukemia was 44.2 µg/mL; in the assay with A549 NSCLC, more than 150 µg/mL; with MCF7 breast it was 115 µg/mL; with DU-145 prostate, 59 µg/mL; in the assay with SF-295 CNS it was 52.8 µg/mL; with HS 578T breast, 140 µg/mL. Also, the TGI is 62.8 µg/mL in the assay with UACC-62 melanoma, 97.3 µg/mL with SN12C renal, 72.7 µg/mL in the assay with NCI-H522 lung and 77.5 µg/mL in the assay with A498 renal.

For the compound `C[As](C)Sc1ccnc(S[As](C)C)n1`, the GI50 was 1.34 µM with CCRF-CEM leukemia; 8.51 µM in the assay with A549 NSCLC; 3.23 µM in the assay on MCF7 breast; 5.98 µM in the assay on DU-145 prostate; 27.2 µM with SF-295 CNS; 1.99 µM with HS 578T breast. The GI50 in the assay with UACC-62 melanoma is 2.38 µM; with SN12C renal, 3.41 µM; in the assay with NCI-H522 lung, 0.918 µM; in the assay on A498 renal, 26 µM. The TGI in the assay on A549 NSCLC was more than 41.7 µM; in the assay with MCF7 breast, more than 35.1 µM; in the assay on DU-145 prostate it was more than 39.7 µM; with SF-295 CNS it was more than 59.2 µM; in the assay on HS 578T breast, 17.7 µM; with UACC-62 melanoma, 15.6 µM. The TGI in the assay with SN12C renal was 15.8 µM; in the assay on NCI-H522 lung, 27.8 µM; with A498 renal it was more than 100 µM.

Take `CCCCCCCCCCCCOC1C(CNC(=O)C2OC3OC(C)(C)OC3C2NC(=O)CN2CCN(c3ccccn3)CC2)OC2OC(C)(C)OC21` (centres undefined): the GI50 in the assay with CCRF-CEM leukemia is 2.5 µM; with A549 NSCLC, 1.6 µM; in the assay on MCF7 breast it was 1.94 µM; with DU-145 prostate, 1.68 µM; with SF-295 CNS it was 1.77 µM; with HS 578T breast, 1.9 µM. Moreover, the GI50 in the assay with UACC-62 melanoma is 1.61 µM; in the assay on SN12C renal, 1.75 µM; in the assay on NCI-H522 lung it was 1.66 µM; in the assay with A498 renal it was 1.6 µM. The TGI with CCRF-CEM leukemia was determined as 5.5 µM; with A549 NSCLC, 3.07 µM; with MCF7 breast it was 4.58 µM; with DU-145 prostate it was 3.04 µM; in the assay on SF-295 CNS, 3.48 µM; in the assay with HS 578T breast, 4.69 µM. Besides, the TGI in the assay with UACC-62 melanoma was found to be 3.05 µM; in the assay with SN12C renal, 3.24 µM; with NCI-H522 lung, 3.2 µM; with A498 renal it was 2.97 µM.

On to `O=C1Nc2cc(Cl)ccc2Oc2cc(Oc3ccccc3)ccc21`, for which the GI50 is 3.24 µM with CCRF-CEM leukemia; 4.66 µM in the assay with A549 NSCLC; 3.39 µM with MCF7 breast; 6.52 µM in the assay on DU-145 prostate; 3.64 µM in the assay with SF-295 CNS; 3.31 µM with HS 578T breast. Moreover, the GI50 in the assay on UACC-62 melanoma was 4.15 µM; in the assay with SN12C renal it was 5.52 µM; in the assay with NCI-H522 lung, 3.51 µM; in the assay on A498 renal it was 1.69 µM. In addition, the TGI was more than 100 µM in the assay on CCRF-CEM leukemia; 33.8 µM in the assay on A549 NSCLC; 18.3 µM with MCF7 breast; 26.6 µM with DU-145 prostate; 18.5 µM with SF-295 CNS; 27.5 µM in the assay with HS 578T breast. For the same compound, the TGI in the assay with UACC-62 melanoma is 91.3 µM; in the assay with SN12C renal, 71.1 µM; with NCI-H522 lung, more than 100 µM; with A498 renal, 9.72 µM.

`NC(=O)c1nnn(Cc2cc(Cl)c(C(=O)c3ccc(Cl)cc3)c(Cl)c2)c1N`: the GI50 in the assay on CCRF-CEM leukemia was 7.76 µM; in the assay on A549 NSCLC it was more than 9.09 µM; with UACC-62 melanoma, more than 9.09 µM; with SN12C renal it was more than 9.09 µM; in the assay on NCI-H522 lung it was more than 9.09 µM; with A498 renal, more than 9.09 µM. The total growth inhibition concentration (TGI) in the assay on CCRF-CEM leukemia is more than 100 µM; in the assay on A549 NSCLC, > 9.09 µM and 37.1 µM; in the assay on MCF7 breast, 32.9 µM; in the assay with DU-145 prostate, more than 53.5 µM; in the assay on SF-295 CNS it was > 9.09 µM and 34 µM; in the assay on HS 578T breast, more than 64.3 µM. Moreover, the total growth inhibition concentration (TGI) in the assay on UACC-62 melanoma is > 9.09 µM and 36.4 µM; with SN12C renal, > 9.09 µM and 46.8 µM; in the assay with NCI-H522 lung, > 9.09 µM and 38.8 µM; with A498 renal, > 9.09 µM and 27.2 µM.

For `CS(=O)(=O)N1CCN(Cc2cc3nc(-c4cccc5[nH]ncc45)nc(N4CCOCC4)c3s2)CC1`, the GI50 in the assay with CCRF-CEM leukemia was 2.3 µM and 0.909 µM; in the assay with A549 NSCLC, 0.477 µM and 0.43 µM; with MCF7 breast, 0.0766 µM and 0.083 µM; in the assay with DU-145 prostate, 0.61 µM and 0.427 µM; with SF-295 CNS it was 0.262 µM and 0.318 µM; in the assay with HS 578T breast, 0.134 µM and 0.148 µM. Further, the GI50 with SN12C renal was 0.493 µM and 0.224 µM; in the assay with NCI-H522 lung, 0.602 µM and 0.37 µM; in the assay on A498 renal, 0.0618 µM and 0.0581 µM. For the same compound, the TGI was more than 100 µM in the assay on CCRF-CEM leukemia; 3.71 µM and > 5.34 µM in the assay on A549 NSCLC; more than 100 µM in the assay with MCF7 breast; more than 100 µM with DU-145 prostate; 3.11 µM and 3.62 µM in the assay on SF-295 CNS; 1.44 µM and 1.11 µM in the assay on HS 578T breast. Also, the TGI is 0.244 µM in the assay on UACC-62 melanoma; more than 100 µM in the assay with SN12C renal; more than 28 µM with NCI-H522 lung; 0.433 µM and 0.389 µM in the assay with A498 renal.
